Reference: paper PMC5874133 (Science immunology, 2018)
Ends that are not written are not given here.

Key:
[1] = target: recombinant HLA-A2 molecules (Homo sapiens, UniProt P04439, D140Y/D185E/D98H/E176V/E277Q/G131W/G231S/I119V/I121R/I166T/I218V/L300P/L318F/N151K/N90K/P208A/P217A/Q86G/Q94H/R138H/R169H/T345S); test: peptide binding to recombinant HLA-A2
[2] = system: D222D clone 2 or a MelanA26–35-reactive clone vs. cognate peptide-pulsed LCLs; test: inhibition of lysis of cognate peptide-pulsed LCLs by CD8^+ T-cell clones; format: cell-based, human; conditions: D222D clone 2 or MelanA26–35-reactive clone; 4 h, E/T 1/1; triplicate; Fig. 1F
[3] = system: ZnT8_186–194-reactive CD8^+ T-cell clone H017N; format: cell-based, human; conditions: peptide-pulsed LCLs, 0.1 µM, 6 h, percent cytokine^+ cells, two experiments, p=0.008, Fig. 7E
[4] = system: ZnT8_186–194-reactive CD8^+ T-cell clones; test: effect on MMr staining of ZnT8_186–194-reactive CD8^+ T-cell clones; format: cell-based, human; conditions: normalized MMr fluorescence intensities between clones; Fig. 2B

VAANIVLTV [ZnT8_186–194]
Kd [1]: 15 nM

AVAANIVLTV [ZnT8_185–194]
Kd [1]: 207 nM

C/C=C/[C@H]1O[C@@](O)([C@@H](C)[C@H](O)[C@H](C)[C@H]2OC(=O)/C(OC)=C/C(C)=C/[C@@H](C)[C@@H](O)[C@@H](CC)[C@@H](O)[C@H](C)C/C(C)=C/C=C/[C@@H]2OC)C[C@@H](O[C@H]2C[C@@H](O)[C@H](OC(N)=O)[C@@H](C)O2)[C@@H]1C [concanamycin A]
inhibition of lytic activity [2]: inhibited significantly

KAANIVLTV [B. stercoris mimotope]
agonist potency relative to native ZnT8_186–194 peptide [3]: stronger agonist potency

C[C@H]1CCC/C=C/[C@@H]2C[C@H](O)C[C@H]2[C@H](O)/C=C/C(=O)O1 [brefeldin A]
inhibition of lytic activity [2]: marginally

Cc1nc(Nc2ncc(C(=O)Nc3c(C)cccc3Cl)s2)cc(N2CCN(CCO)CC2)n1 [dasatinib]
effect on variability of MMr fluorescence intensity [4]: reduced variability
